Entries after “also recorded” stand apart in the source; their conditions may differ.
These molecules were tested on SJ-3C cells (assay: Agar overlay disc diffusion antibiotic susceptibility). Conditions: BBL Sensi-Disc on MRS agar overlay, 37° C. overnight anaerobically.
Assay type: cell-based, Lactobacillus crispatus

Molecule | antibiotic susceptibility or resistance of SJ-3C
sulfamethoxazole-trimethoprim | resistance
O=C(O)c1cn(C2CC2)c2cc(N3CCNCC3)c(F)cc2c1=O [ciprofloxacin] | resistance
C[C@@H]1O[C@@H]1P(=O)(O)O [fosfomycin] | resistance
Cc1noc(NS(=O)(=O)c2ccc(N)cc2)c1C [sulfisoxazole] | resistance
CCC[C@@H]1C[C@@H](C(=O)N[C@@H]([C@H]2O[C@H](SC)[C@H](O)[C@@H](O)[C@H]2O)[C@@H](C)O)N(C)C1 [lincomycin] | resistance; also recorded: resistant
Cc1ncc([N+](=O)[O-])n1CCO [metronidazole] | resistance
gentamicin | resistance
